Drawing on BindingDB's records for doi:10.7270/Q2125R3Z (Burnham Center For Chemical Genomics, 2010), this text covers EC50 for two compounds.

This assay has as its target Delta-type opioid receptor (Homo sapiens, UniProt P41143). Nature of the assay: DOR agonists, SAR follow-up, image-based (AID 2370).

Broadly, the EC50 is the concentration giving half of the maximal effect.

Chain of Delta-type opioid receptor (P41143 whole entry): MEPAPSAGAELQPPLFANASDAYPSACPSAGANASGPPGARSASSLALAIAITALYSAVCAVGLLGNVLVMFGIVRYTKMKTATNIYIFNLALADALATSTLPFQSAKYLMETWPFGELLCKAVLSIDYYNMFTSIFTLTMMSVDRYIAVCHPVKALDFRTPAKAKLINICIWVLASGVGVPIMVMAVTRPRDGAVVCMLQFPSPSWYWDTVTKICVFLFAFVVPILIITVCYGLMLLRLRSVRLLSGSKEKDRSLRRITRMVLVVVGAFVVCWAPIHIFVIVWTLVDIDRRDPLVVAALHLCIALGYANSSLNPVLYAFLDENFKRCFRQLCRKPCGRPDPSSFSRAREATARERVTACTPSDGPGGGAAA

`CCC(N=Nc1ccnc2cc(Cl)ccc12)c1ccc(O)cc1` (configuration not stated) [4-[1-[2-(7-chloroquinolin-4-yl)hydrazinyl]propylidene]cyclohexa-2,5-dien-1-one] gave an EC50 of 30.7 µM.
Next, `Oc1ccc(CN=Nc2ccnc3cc(Cl)ccc23)cc1O` [(4Z)-4-[[2-(7-chloroquinolin-4-yl)hydrazinyl]methylidene]-2-hydroxycyclohexa-2,5-dien-1-one]: greater than 32 µM.
